Assay results published in ChEMBL document CHEMBL5512662, “Illuminating Dark Chemical Matter Using the Cell Painting Assay” (J Med Chem, 2024).
pIC50: −log10 of the molar value.

What was measured:
[1] = tested on: C3H 10T1/2; assay: Inhibition of purmorphamine-induced osteoblast differentiation in mouse C3H 10T1/2 cells assessed as reduction in alkaline phosphatase level preincubated for 1 hr followed by purmorphamine addition for 4 days by luminescence based assay; assay type: functional, cell-based
[2] = tested on: Shh Light II; assay: Inhibition of purmorphamine-induced osteoblast differentiation in mouse Shh Light II cells preincubated for 1 hr followed by purmorphamine addition for 48 hrs by luminescence based reporter gene assay; assay type: functional, cell-based

| pIC50 [1] | pIC50 [2] | Structure (SMILES) |
| --- | --- | --- |
| 6.49 | – | CCOc1ccc(Oc2nc(Nc3ccc(C)cc3)nc(N(C)C)n2)nn1 |
| 7.05 | 6.33 | COCCNC(=O)C1CCN(C(=O)c2cc3sccc3n2Cc2ccc(F)cc2)CC1 |
| 6.51 | 5.66 | CN(CCCNC(=O)c1nn(C)c2c1CS(=O)(=O)c1ccccc1-2)Cc1ccccc1 |
| 6.27 | 5.85 | COc1ccccc1CCNC(=O)CCCn1nc(C)c2c(C)n(-c3ccc(C)cc3)nc2c1=O |
